Entries after “also recorded” stand apart in the source; their conditions may differ. Where two headings read alike, the source gives them in different places.
Experiments:
prostate cancer cells = assay: Inhibitory activity on a variety of prostate cancer cells (Table 1); assay type: cell-based, human; settings: structure-activity statements on Table 1
Procedure: (§1) All prostate cancer cells were cultured with a RPMI-1640 medium containing 10% calf serum, 100 units of penicillin per milliliter and 100 µg/mL of streptomycin in a constant temperature incubator containing 5% carbon dioxide at a saturated humidity of 37° C.
(§2) Cells in the logarithmic phase of growth were taken and cultured in 96-well plates for 24 hours (5×10^3 cells/well), then treated with different concentrations of the compounds to be tested, and incubated by MTT method for 4 hours. The supernatant was removed by centrifugation, the MTT crystals were dissolved by adding DMSO, and the absorbance value was measured by an enzyme-linked immunosorbent assay at a wavelength of 570 nm. The cytotoxic activity of the compounds to be tested on cancer cells was expressed as IC50.

RWPE-1 = assay: Cytotoxic activity test (MTT) on normal human prostate cell RWPE-1; assay type: cell-based
Procedure: as §1, §2

[1] = system: 22Rv1 human prostate cancer cells; assay: Mice model for 22RV1 prostate cancer growth, intraperitoneal injection in combination with enzalutamide; assay type: in vivo, nod-scid male mice
Excerpt: (§3) First, a large number of 22RV1 cells were amplified. To ensure the success rate of tumor-bearing, the cell state needs to be adjusted to the optimal state. When the number of the cells was sufficient, the cells were digested and flushed twice with PBS buffer to remove fetal bovine serum (FBS) from the medium to reduce immune rejection. The cells were adjusted to 3000*10^4/mL after counting by a hemocytometer. Then 22Rv1 human prostate cancer cells […] were subcutaneously injected into a 4-5 weeks old nod-scid male mice with severe immunodeficiency.
When the tumor grew to about 100 mm^3, the mice were randomly divided into 4 groups to make sure that the average tumor volume was the same. […] The body weight of the mice and the length and width of the tumor were measured and recorded every 3 days. The subcutaneous tumors were taken and then photographed at the end of the experiment. The tumor volumes were calculated according to the equation: volume=length×width^2×π/6, and then counted. The experimental results are shown in FIG. 3A, FIG. 3B, FIG. 3C and FIG. 3D.

[2] = system: 22Rv1 human prostate cancer cells; assay: Mice model for 22RV1 prostate cancer growth, oral administration experiment; assay type: in vivo, nod-scid male mice; settings: 22RV1 tumor-bearing mice
Excerpt: as §3
When the tumor grew to a volume of about 100 mm^3, the mice were randomly divided into 3 groups to make sure that the average tumor volume was the same. The mice in the dosing group were orally gavaged with 0.5 mg/kg and 2 mg/kg of Compound YH-52 per day, and the mice in the control group were given the same volume of normal saline containing DMSO. The body weight of the mice and the length and width of the tumors were measured and recorded every 3 days. The subcutaneous tumors were taken and then photographed at the end of the experiment. The tumor volumes were calculated according to the equation: volume=length×width^2×π/6, and then counted. The experimental results are shown in FIG. 2A, FIG. 2B and FIG. 2C.

C4-2B = assay: Cytotoxic activity test (MTT) on C4-2B prostate cancer cells; assay type: cell-based, human; settings: C4-2B cells
Procedure: as §1, §2

LNcap = assay: Cytotoxic activity test (MTT) on LNcap prostate cancer cells; assay type: cell-based, human; settings: LNcap cells, MTT; read-out: Prostate cancer cells IC50 LNcap
Procedure: as §1, §2

C4-2B/ENZR = assay: Cytotoxic activity test (MTT) on C4-2B/ENZR prostate cancer cells; assay type: cell-based, human; settings: C4-2B/ENZR cells
Procedure: as §1, §2

Vcap-CRPC = assay: Cytotoxic activity test (MTT) on Vcap-CRPC prostate cancer cells; assay type: cell-based, human; settings: Vcap-CRPC cells, MTT; read-out: Prostate cancer cells IC50 Vcap-CRPC
Procedure: as §1, §2

22RV1 = assay: Cytotoxic activity test (MTT) on 22RV1 prostate cancer cells; assay type: cell-based, human; settings: 22RV1 cells, MTT; read-out: Prostate cancer cells IC50 22RV1
Procedure: as §1, §2

Structure (SMILES)	inhibitory activity on prostate cancer cells (in words) (prostate cancer cells)	IC50 (RWPE-1; Homo sapiens, RWPE-1, read-out: Normal cells RWPE-1 (IC50)) [µM]	toxicity for the normal human prostate cell RWPE-1 (RWPE-1; compared with prototype compound YH-11)	effect in combination with ENZ ([1]; intraperitoneal injection 0.1 mg/kg in combination with ENZ (10 mg/kg))	efficacy compared to the positive drug enzalutamide (ENZ) ([1]; intraperitoneal injection 0.1 mg/kg per day, ENZ 10 mg/kg)	tumor growth in mice ([2]; oral gavage 0.5 mg/kg per day)	tumor growth in mice ([2]; oral gavage 2 mg/kg per day)	IC50 (C4-2B) [µM]	IC50 (RWPE-1; normal human prostate cell RWPE-1, MTT, read-out: Normal cells RWPE-1 (IC50)) [µM]	IC50 (LNcap) [µM]	IC50 (C4-2B/ENZR) [µM]	IC50 (Vcap-CRPC) [µM]	IC50 (22RV1) [µM]
C=C(C)[C@@]12OC3(c4ccccc4)O[C@@H]1[C@@H]1[C@H](O)[C@](Br)(CO)[C@@H](O)[C@]4(O)C(=O)C(C)=C[C@H]4[C@@]1(O3)[C@H](C)[C@H]2OC(=O)c1ccccc1 [YH-52]	most prominent; also recorded: enhanced activity	53.6	significantly reduced toxicity	significant synergistic effect	greater efficacy	significantly inhibit tumor growth	significantly inhibit tumor growth	–	–	–	–	–	–
C=C(C)[C@@]12OC3(c4ccccc4)O[C@@H]1[C@@H]1[C@@H]4O[C@]4(COC(=O)CCCCCCCCCCCCCCC)[C@@H](O)[C@]4(O)C(=O)C(C)=C[C@H]4[C@@]1(O3)[C@H](C)[C@H]2OC(C)=O [YH-5]	significant decrease in activity	–	–	–	–	–	–	0.904	72.8	0.0993	0.434	4.66	44.5

Source: US12686686B2 (priority 2020, dated 2026)
